# Measured values from patent US5840684A, “Glycopeptide antibiotic derivatives” (Eli Lilly and Company, priority 1995, dated 1998).
# Experiments:
# [1] = tested on: Staphylococcus aureus 489; assay: broth micro-dilution MIC; assay type: cell-based
# Protocol: (§1) The MIC's were determined using a standard broth micro-dilution assay.
# [2] = tested on: Staphylococcus aureus SA1199A; assay: broth micro-dilution MIC; assay type: cell-based
# Protocol: as §1
# Entercoccus faecium 180 = assay: broth micro-dilution MIC; assay type: cell-based
# Protocol: (§2) The formula I compounds have in vitro and in vivo activity against Gram-positive pathogenic bacteria. The MIC's were determined using a standard broth micro-dilution assay.
# Entercoccus faecium 2041 = assay: broth micro-dilution MIC; assay type: cell-based
# Protocol: as §2
# [3] = tested on: Enterococcus gallinarum 245; assay: broth micro-dilution MIC; assay type: cell-based; conditions: Enterococcus gallinarum, GALLINARUM
# Protocol: as §2
# Escherichia coli EC14 = assay: broth micro-dilution MIC; assay type: cell-based
# Protocol: as §2
# [4] = tested on: Haemophilus influenzae RD; assay: broth micro-dilution MIC; assay type: cell-based; conditions: Haemophilus influenzae
# Protocol: as §2
# [5] = tested on: Staphylococcus epidermidis 270; assay: broth micro-dilution MIC; assay type: cell-based
# Protocol: as §2
# [6] = tested on: Staphylococcus haemolyticus 105; assay: broth micro-dilution MIC; assay type: cell-based
# Protocol: as §2
# [7] = tested on: Staphylococcus haemolyticus 415; assay: broth micro-dilution MIC; assay type: cell-based
# Protocol: as §2
# [8] = tested on: Streptococcus pneumoniae P1; assay: broth micro-dilution MIC; assay type: cell-based
# Protocol: as §2
# Stapylococcus aureus = assay: mouse protection, experimentally-induced infection; assay type: in vivo; conditions: mice infected with Stapylococcus aureus, two doses
# Streptococcus pyogenes = assay: mouse protection, experimentally-induced infection; assay type: in vivo; conditions: mice infected with Streptococcus pyogenes, two doses
# Streptococcus pneumoniae = assay: mouse protection, experimentally-induced infection; assay type: in vivo; conditions: mice infected with Streptococcus pneumoniae, two doses
# [9] = tested on: vancomycin-resistant enterococci; assay: broth micro-dilution, mean geometric MIC; assay type: cell-based, Enterococcus faecium and Enterococcus faecalis; conditions: 24 h, read-out: mean geometric MIC, Vancomycin Resistant Strains
# [10] = tested on: vancomycin-susceptible enterococci; assay: broth micro-dilution, mean geometric MIC; assay type: cell-based, Enterococcus faecium and Enterococcus faecalis; conditions: 24 h, read-out: mean geometric MIC, Vancomycin Sensitive Strains
# Pediococcus acidilacti = assay: agar dilution MIC, lactic acid bacteria; assay type: cell-based; conditions: Pediococcus
# Pediococcus pentosaceus = assay: agar dilution MIC, lactic acid bacteria; assay type: cell-based; conditions: Pediococcus pentosaceus
# Leuconostoc lactis = assay: agar dilution MIC, lactic acid bacteria; assay type: cell-based; conditions: Leuconostoc lactis
# [11] = tested on: Leuconostoc mesenteroides; assay: agar dilution MIC, lactic acid bacteria; assay type: cell-based; conditions: Leuconostoc mesenteroides
# [12] = tested on: Leuconostoc pseudomesenteroides; assay: agar dilution MIC, lactic acid bacteria; assay type: cell-based
# Leuconostoc citreum = assay: agar dilution MIC, lactic acid bacteria; assay type: cell-based
# Lactobacillus confusus = assay: agar dilution MIC, lactic acid bacteria; assay type: cell-based; conditions: Weissella confusa
structure (smiles),measurement,setting,value
"CN[C@H](CC(C)C)C(=O)N[C@H]1C(=O)N[C@@H](CC(N)=O)C(=O)N[C@H]2C(=O)N[C@H]3C(=O)N[C@H](C(=O)N[C@H](C(=O)O)c4cc(O)cc(O)c4-c4cc3ccc4O)[C@H](O)c3ccc(c(Cl)c3)Oc3cc2cc(c3O[C@@H]2O[C@H](CO)[C@@H](O)[C@H](O)[C@H]2O[C@H]2C[C@](C)(N)[C@H](O)[C@H](C)O2)Oc2ccc(cc2Cl)[C@H]1O [vancomycin, reference compound]",MIC,[1],0.125 µg/mL
same,MIC,[2],0.125 µg/mL
same,MIC,Entercoccus faecium 180,> 64 µg/mL
same,MIC,Entercoccus faecium 2041,2 µg/mL
same,MIC,[3],4 µg/mL
same,MIC,Escherichia coli EC14,> 64 µg/mL
same,MIC,[4],> 64 µg/mL
same,MIC,[5],16 µg/mL
same,MIC,[6],16 µg/mL
same,MIC,[7],8 µg/mL
same,MIC,[8],0.25 µg/mL
same,ED50,Stapylococcus aureus,1.2 mg/kg/2
same,ED50,Streptococcus pyogenes,0.8 mg/kg/2
same,ED50,Streptococcus pneumoniae,1.1 mg/kg/2
same,MIC,[9],282 µg/mL
same,MIC,[10],3.9 µg/mL
same,MIC,Pediococcus acidilacti,891 µg/mL
same,MIC,Pediococcus pentosaceus,1020 µg/mL
same,MIC,Leuconostoc lactis,1020 µg/mL
same,MIC,[11],1020 µg/mL
same,MIC,[12],> 1020 µg/mL
same,MIC,Leuconostoc citreum,> 1020 µg/mL
same,MIC,Lactobacillus confusus,1020 µg/mL
